Results taken from patent US20240207374A1, “LIPID NANOPARTICLES CONTAINING POLYNUCLEOTIDES ENCODING GLUCOSE-6-PHOSPHATASE AND USES THEREOF” (ModernaTX, Inc., priority 2021, published 2024).

test: Residual parent lipid levels in the liver of mice (hEPO mRNA LNP); type: in vivo; details: CD-1 mice

| Parent Lipid Remaining at 24 h | SMILES |
| --- | --- |
| 0.3 ± 0.2 nmol/g liver tissue | CCCCCCCCC(CCCCCCCC)OC(=O)CCCCCCCN(CCO)CCCCCCCC(=O)OCCC(CCCC)CCCCCC (stereo not shown) [Compound 7] |
| 56 ± 6 nmol/g liver tissue | CCCCCCCCC(CCCCCCCC)COC(=O)CCCCCN(CCCCCCCC(=O)OC(CC)CCCCCCCC)CCCNc1c(NC)c(=O)c1=O (stereo not shown) [Compound 14] |
| 51 ± 4 nmol/g liver tissue | CCCCCCCCC(CCCCCC)COC(=O)CCCCCN(CCCCCCCC(=O)OC(CC)CCCCCCCC)CCCNc1c(NC)c(=O)c1=O (stereo not shown) [Compound 15] |
| 77 ± 3 nmol/g liver tissue | CCCCCCCCC(CCCCCCCC)OC(=O)CCCCCCCN(CCCCCCCC(=O)OCC(CCCCC)CCCCCCC)CCCNc1c(NC)c(=O)c1=O (stereo not shown) [Compound 16] |
| 35 ± 5 nmol/g liver tissue | CCCCCCCCC(CCCCCCCC)OC(=O)CCCCCCCN(CCCCCCCC(=O)OCCC(CCCCCC)C(C)C)CCCNc1c(NC)c(=O)c1=O (stereo not shown) [Compound 17] |
| 73 ± 6 nmol/g liver tissue | CCCCCCCCC(CCCCCCCC)OC(=O)CCCCCCCN(CCCCCCCC(=O)OCC(CCCCCCC)C(C)C)CCCNc1c(NC)c(=O)c1=O (stereo not shown) [Compound 19] |
| 65 ± 5 nmol/g liver tissue | CCCCCCCCC(CCCCCCCC)OC(=O)CCCCCCCN(CCCCCCCC(=O)OCCC(CCCC)CCCCCC)CCCNc1c(NC)c(=O)c1=O (stereo not shown) [Compound 20] |
| <0.1 nmol/g liver tissue | CCCCCCCCC(CCCCCCCC)OC(=O)CCCCCCCN(CCO)CCCCCCCC(=O)OCCC(CCCC)CCCC [Compound 22, 3-Butylheptyl 8-((8-(heptadecan-9-yloxy)-8-oxooctyl)(2-hydroxyethyl)amino)octanoate] |
| 24 ± 3 nmol/g liver tissue | CCCCCCC(CCCCCC)CCOC(=O)CCCCCCCN(CCO)CCCCCCCC(=O)OCCC(CCCCCC)CCCCCC [Compound 23] |
| 3 ± 1 nmol/g liver tissue | CCCCCCCCC(CCCCCCCC)OC(=O)CCCCCCCN(CCO)CCCCCCCC(=O)OCCC(CCCCC)CCCCC [Compound 24] |
| 0.1 ± 0.04 nmol/g liver tissue | CCCCCC(CCCCC)CCOC(=O)CCCCCCCN(CCO)CCCCCCCC(=O)OCCC(CCCCC)CCCCC [Compound 25] |
| 141 ± 15 nmol/g liver tissue | CCCCCCCCC(CCCCCCCC)OC(=O)CCCCCCCN(CCCCCCCC(=O)OCCC(CCCCCC)CCCCCC)CCCNc1c(NC)c(=O)c1=O [Compound 26] |
| 27 ± 4 nmol/g liver tissue | CCCCCCCCC(CCCCCCCC)OC(=O)CCCCCCCN(CCCCCCCC(=O)OCCC(CCCC)CCCC)CCCNc1c(NC)c(=O)c1=O [Compound 27, 3-Butylheptyl 8-((8-(heptadecan-9-yloxy)-8-oxooctyl)(3-((2-(methylamino)-3,4-dioxocyclobut-1-en-1-yl)amino)propyl)amino)octanoate] |
| 58 ± 7 nmol/g liver tissue | CCCCCCC(CCCCCC)CCOC(=O)CCCCCCCN(CCCCCCCC(=O)OCCC(CCCCCC)CCCCCC)CCCNc1c(NC)c(=O)c1=O [Compound 28] |
| 66 ± 16 nmol/g liver tissue | CCCCCCCCC(CCCCCCCC)OC(=O)CCCCCCCN(CCCCCCCC(=O)OCCC(CCCCC)CCCCC)CCCNc1c(NC)c(=O)c1=O [Compound 29] |
| 25 ± 4 nmol/g liver tissue | CCCCCC(CCCCC)CCOC(=O)CCCCCCCN(CCCCCCCC(=O)OCCC(CCCCC)CCCCC)CCCNc1c(NC)c(=O)c1=O [Compound 30, Bis(3-pentyloctyl) 8,8′-((3-((2-(methylamino)-3,4-dioxocyclobut-1-en-1-yl)amino)propyl)azanediyl)dioctanoate] |
| 2 ± 0.6 nmol/g liver tissue | CCCCCCCCC(CCCCCCCC)OC(=O)CCCCCCCN(CCO)CCCCCCCC(=O)OCCCC(CCCCC)CCCCC [Compound 31] |
| 69 ± 17 nmol/g liver tissue | CCCCCCCCC(CCCCCCCC)OC(=O)CCCCCCCN(CCCCCCCC(=O)OCCCC(CCCCC)CCCCC)CCCNc1c(NC)c(=O)c1=O [Compound 32] |
| 0.5 ± 0.3 nmol/g liver tissue | CCCCCC(CCCCC)CCCOC(=O)CCCCCCCN(CCO)CCCCCCCC(=O)OCCCC(CCCCC)CCCCC [Compound 33] |

| Parent Lipid Remaining at 24 h | SMILES |
| --- | --- |
| 12 ± 2 nmol/g liver tissue | CCCCCC(CCCCC)CCCOC(=O)CCCCCCCN(CCCCCCCC(=O)OCCCC(CCCCC)CCCCC)CCCNc1c(NC)c(=O)c1=O [Compound 34] |
| <0.1 nmol/g liver tissue | CCCCCCCCC(CCCCCCCC)OC(=O)CCCCCCCN(CCO)CCCCCCCC(=O)OCCC1CCC(CC)CC1 (stereo not shown) [Compound 35] |
| <0.1 nmol/g liver tissue | CCCCCCCCC(CCCCCCCC)OC(=O)CCCCCCCN(CCO)CCCCCCCC(=O)OCCC1CCC(CC)C1 (stereo not shown) [Compound 37] |
| 4 ± 1 nmol/g liver tissue | CCCCCCCCC(CCCCCCCC)OC(=O)CCCCCCCN(CCCCCCCC(=O)OCCC1CCC(CCC)CC1)CCCNc1c(NC)c(=O)c1=O (stereo not shown) [Compound 39] |
| 3 ± 0.3 nmol/g liver tissue | CCCCCCCCC(CCCCCCCC)OC(=O)CCCCCCCN(CCCCCCCC(=O)OCCC1CCC(CC)C1)CCCNc1c(NC)c(=O)c1=O (stereo not shown) [Compound 40] |
| 4 ± 0.6 nmol/g liver tissue | CCCCCC(CCCCC)CCOC(=O)CCCCCCCN(CCCCCCCC(=O)OCCC(CCC)CCC)CCCNc1c(NC)c(=O)c1=O [Compound 51] |
| <1 nmol/g liver tissue | CCCCC(CCCC)CCOC(=O)CCCCCCCN(CCCCCCCC(=O)OCCC(CCC)CCC)CCCNc1c(NC)c(=O)c1=O [Compound 52] |
| <1 nmol/g liver tissue | CCCC(CCC)CCOC(=O)CCCCCCCN(CCCCCCCC(=O)OCCC(CCC)CCC)CCCNc1c(NC)c(=O)c1=O [Compound 53] |
| 12 ± 1 nmol/g liver tissue | CCCCCC(CCCCC)CCOC(=O)CCCCCCCN(CCCCCCCC(=O)OCCC(CCCC)CCCC)CCCNc1c(NC)c(=O)c1=O [Compound 54, 3-Butylheptyl 8-((3-((2-(methylamino)-3,4-dioxocyclobut-1-en-1-yl)amino)propyl)(8-oxo-8-((3-pentyloctyl)oxy)octyl)amino)octanoate] |
| 12 ± 1 nmol/g liver tissue | CCCCCC(CCCCC)CCOC(=O)CCCCCCCN(CCCCCCCC(=O)OC(CCCCC)CCCCC)CCCNc1c(NC)c(=O)c1=O [Compound 57] |
| 15 ± 2 nmol/g liver tissue | CCCCCC(CCCCC)CCOC(=O)CCCCCCCN(CCCCCCCC(=O)OC(CCCC)CCCC)CCCNc1c(NC)c(=O)c1=O [Compound 58] |
| 8.5 ± 0.6 nmol/g liver tissue | CCCCCCC(CCCCCC)OC(=O)CCCCCCCN(CCCCCCCC(=O)OCCC(CCCC)CCCC)CCCNc1c(NC)c(=O)c1=O [Compound 60] |
| 5.1 ± 0.8 nmol/g liver tissue | CCCCCC(CCCCC)OC(=O)CCCCCCCN(CCCCCCCC(=O)OCCC(CCCC)CCCC)CCCNc1c(NC)c(=O)c1=O [Compound 61] |
| 1.8 ± 0.6 nmol/g liver tissue | CCCCC(CCCC)CCOC(=O)CCCCCCCN(CCCCCCCC(=O)OC(CCCC)CCCC)CCCNc1c(NC)c(=O)c1=O [Compound 62] |
| 8.9 ± 2.8 nmol/g liver tissue | CCCCCCCC(CCCCCCC)OC(=O)CCCCCCCN(CCCCCCCC(=O)OCCC(CCC)CCC)CCCNc1c(NC)c(=O)c1=O [Compound 63] |
| 4.9 ± 0.9 nmol/g liver tissue | CCCCCCC(CCCCCC)OC(=O)CCCCCCCN(CCCCCCCC(=O)OCCC(CCC)CCC)CCCNc1c(NC)c(=O)c1=O [Compound 64] |
| 0.9 ± 0.3 nmol/g liver tissue | CCCCCC(CCCCC)OC(=O)CCCCCCCN(CCCCCCCC(=O)OCCC(CCC)CCC)CCCNc1c(NC)c(=O)c1=O [Compound 65] |
| 0.1 ± 0.03 nmol/g liver tissue | CCCCC(CCCC)OC(=O)CCCCCCCN(CCCCCCCC(=O)OCCC(CCC)CCC)CCCNc1c(NC)c(=O)c1=O [Compound 66] |
